The compounds below were run against T1, JNK1α1 (Homo sapiens, UniProt P45983) (assay: Coupled spectrophotometric (PK/LDH) JNK1α1 assay: % inhibition and Ki determination). Details: @1 uM; read-out: % Inhibition JNK-1.
T1 construct: catalytic domain containing amino acids 1-364 and N-terminal hexahistidine tag; hexahistidine (His6) (N); made in house; host or cells: E. coli BL21 (DE3)
T1 sequence (P45983 1-364): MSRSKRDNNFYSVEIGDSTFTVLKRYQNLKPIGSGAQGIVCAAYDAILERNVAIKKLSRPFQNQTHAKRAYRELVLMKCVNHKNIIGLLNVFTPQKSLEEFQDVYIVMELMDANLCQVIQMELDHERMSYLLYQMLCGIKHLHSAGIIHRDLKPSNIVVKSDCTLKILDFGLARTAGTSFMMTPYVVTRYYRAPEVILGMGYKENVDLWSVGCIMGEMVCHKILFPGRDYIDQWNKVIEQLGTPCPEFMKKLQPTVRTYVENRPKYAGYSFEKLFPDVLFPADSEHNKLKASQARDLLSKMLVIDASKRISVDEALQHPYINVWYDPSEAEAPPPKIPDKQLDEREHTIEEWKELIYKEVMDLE
Format: biochemical
In short: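 Initial rates were taken from the absorbance decrease at 340 nm at 30° C. Ki was fitted with a tight-binding model over 11 concentrations (top 100 μM); single-point inhibition was tested at 1 or 10 μM.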
`Cc1nnc(CNC(=O)c2cccc3cnc(N[C@H]4CC[C@H](O)CC4)nc23)o1` [Example 514, 2-[(trans-4-hydroxycyclohexyl)amino]-N-[(5-methyl-1,3,4-oxadiazol-2-yl)methyl]quinazoline-8-carboxamide] was tested, and the inhibition at 1 µM was 11%. Compound `Cc1cccc(CNC(=O)c2cccc3cnc(N[C@H]4CC[C@H](O)CC4)nc23)n1` [Example 481, 2-[(trans-4-hydroxycyclohexyl)amino]-N-[(6-methylpyridin-2-yl)methyl]quinazoline-carboxamide] has an inhibition at 1 µM of 14%. With `O=C(NCc1ccc[nH]c1=O)c1cccc2cnc(N[C@H]3CC[C@H](O)CC3)nc12` [Example 477, 2-[(trans-4-hydroxycyclohexyl)amino]-N-[(2-oxo-1,2-dihydropyridin-3-yl)methyl]quinazoline-8-carboxamide] the inhibition at 1 µM was 14%. For `Cn1c(CCNC(=O)c2cccc3cnc(N[C@H]4CC[C@H](O)CC4)nc23)nc2cccnc21` [Example 520, 2-[(trans-4-hydroxycyclohexyl)amino]-N-[2-(3-methyl-3H-imidazo[4,5-b]pyridin-2-yl)ethyl]quinazoline-8-carboxamide], the inhibition at 1 µM was 10%. With `CC(C)c1ncc(NC(=O)c2cccc3cnc(N[C@H]4CC[C@H](O)CC4)nc23)cn1` [Example 321, 2-[(trans-4-hydroxycyclohexyl)amino]-N-(2-isopropylpyrimidin-5-yl)quinazoline-8-carboxamide] the inhibition at 1 µM was 39%. Work on `CC(C)(C)OCCOc1cccc2cnc(N[C@H]3CC[C@H](O)CC3)nc12` [Example 258, trans-4-{[8-(2-tert-butoxyethoxy)quinazolin-2-yl]amino}cyclohexanol] yielded an inhibition at 1 µM of 30%. `O=C(N[C@H](CO)CC1CCCCC1)c1ccc2cnc(NC3CCC3)nc2c1` [Example 428, 2-(cyclobutylamino)-N-[(1S)-2-cyclohexyl-1-(hydroxymethyl)ethyl]quinazoline-7-carboxamide] gave an inhibition at 1 µM of 17%.

Same assay, conditions: @10 uM; read-out: % Inhibition JNK-1
`Cc1nnc(CNC(=O)c2cccc3cnc(N[C@H]4CC[C@H](O)CC4)nc23)[nH]1` [Example 511, 2-[(trans-4-hydroxycyclohexyl)amino]-N-[(5-methyl-4H-1,2,4-triazol-3-yl)methyl]quinazoline-8-carboxamide] was tested, and the inhibition at 10 µM was 47%. With `CC(C)(C)N1CC(CNC(=O)c2cccc3cnc(N[C@H]4CC[C@H](O)CC4)nc23)CC1=O` (stereo partly drawn) [Example 503, N-[(1-tert-butyl-5-oxopyrrolidin-3-yl)methyl]-2-[(trans-4-hydroxycyclohexyl)amino]quinazoline-8-carboxamide] the inhibition at 10 µM was 54%. `CN1CCCCC1COc1cccc2cnc(N[C@H]3CC[C@H](O)CC3)nc12` (stereo partly drawn) [Example 252, trans-4-({8-[(1-methylpiperidin-2-yl)methoxy]quinazolin-2-yl}amino)cyclohexanol] showed an inhibition at 10 µM of 59%.

Same assay, conditions: JNK-1
With `O=C(NC(CO)c1ccccc1F)c1ccc2cnc(N[C@H]3CC[C@H](O)CC3)nc2c1` (stereo partly drawn) [Example 98, N-[1-(2-fluorophenyl)-2-hydroxyethyl]-2-[(trans-4-hydroxycyclohexyl)amino]quinazoline-7-carboxamide] the Ki was 33 nM. In the case of `O=C(NC1CCOC1)c1cccc2cnc(N[C@H]3CC[C@H](O)CC3)nc12` (stereo partly drawn) [Example 111, 2-[(trans-4-hydroxycyclohexyl)amino]-N-(tetrahydrofuran-3-yl)quinazoline-8-carboxamide], the Ki is reported as 142 nM. Work on `O=C(Cc1ccc(C(F)(F)F)cc1)Nc1cc2cc(-c3cn[nH]c3)ccc2cn1` [Example 45, N-[6-(1H-pyrazol-4-yl)isoquinolin-3-yl]-2-[4-(trifluoromethyl)phenyl]acetamide] yielded a Ki of 21 nM. Work on `Cc1cc(CNc2cc3cc(-c4cn[nH]c4)ccc3cn2)ccn1` [Example 227, N-[(2-methylpyridin-4-yl)methyl]-6-(1H-pyrazol-4-yl)isoquinolin-3-amine] yielded a Ki of 6620 nM. With `CC(=O)N[C@H]1CC[C@H](Nc2ncc3cccc(OC4CCOC4)c3n2)CC1` (stereo partly drawn) [Example 184, N-(trans-4-{[8-(tetrahydrofuran-3-yloxy)quinazolin-2-yl]amino}cyclohexyl)acetamide] the Ki was 674 nM. Compound `O=C(NC(CO)c1ccccc1)c1ccc2cnc(N[C@H]3CC[C@H](O)CC3)nc2c1` (stereo partly drawn) [Example 326, 2-{(trans-4-hydroxycyclohexyl)amino]-N-(2-hydroxy-1-phenylethyl)quinazoline-7-carboxamide] has a Ki of 193 nM. With `CC(=O)N[C@H]1CC[C@H](Nc2ncc3cccc(C(=O)NC(C)(C)CO)c3n2)CC1` [Example 134, 2-{[trans-4-(acetylamino)cyclohexyl]amino}-N-(2-hydroxy-1,1-dimethylethyl)quinazoline-8-carboxamide] the Ki was 127 nM. For `O=C(c1ccc2cnc(N[C@H]3CC[C@H](O)CC3)nc2c1)N1CCC[C@H]1CO` [Example 85, trans-4-[(7-{[(2S)-2-(hydroxymethyl)pyrrolidin-1-yl]carbonyl}quinazolin-2-yl)amino]cyclohexanol], the Ki was 3010 nM. `C[C@@H](O)CNC(=O)c1cccc2cnc(N[C@H]3CC[C@H](O)CC3)nc12` [Example 120, 2-[(trans-4-hydroxycyclohexyl)amino]-N-[(2R)-2-hydroxypropyl]quinazoline-8-carboxamide] was tested, and the Ki was 147 nM. Work on `CC(C)NC(=O)c1ccc2cnc(N[C@H]3CC[C@H](O)CC3)nc2c1` [Example 83, 2-[(trans-4-hydroxycyclohexyl)amino]-N-isopropylquinazoline-7-carboxamide] yielded a Ki of 247 nM. In the case of `CC(C)C[C@@H](CO)NC(=O)c1ccc2cnc(NC(C)C)nc2c1` [Example 391, N-[(1S)-1-(hydroxymethyl)-3-methylbutyl]-2-(isopropylamino)quinazoline-7-carboxamide], the Ki is reported as 365 nM. With `O=C(N[C@@H](CO)c1ccccc1)c1ccc2cnc(N[C@H]3CC[C@H](O)CC3)nc2c1` [Example 337, 2-[(trans-4-hydroxycyclohexyl)amino]-N-[(1R)-2-hydroxy-1-phenylethyl]quinazoline-7-carboxamide] the Ki was 568 nM. For `O=C(NC[C@H]1C[C@@H]1CO)c1ccc2cnc(N[C@H]3CC[C@H](O)CC3)nc2c1` [Example 350, 2-[(trans-4-hydroxycyclohexyl)amino]-N-{[(1S,2S)-2-(hydroxymethyl)cyclopropyl]methyl} quinazoline-7-carboxamide], the Ki was 1040 nM. `O=C(NCC1(O)CCOc2ccccc21)c1cccc2cnc(N[C@H]3CC[C@H](O)CC3)nc12` (stereo partly drawn) [Example 444, 2-[(trans-4-hydroxycyclohexyl)amino]-N-[(4-hydroxy-3,4-dihydro-2H-chromen-4-yl)methyl]quinazoline-8-carboxamide] was tested, and the Ki was 106 nM. With `FC1(F)CCC(Nc2ncc3cccc(OC4CCOC4)c3n2)CC1` (centres unmarked) [Example 174, N-(4,4-difluorocyclohexyl)-8-(tetrahydrofuran-3-yloxy)quinazolin-2-amine] the Ki was 999 nM. Compound `COC(=O)N1CCC(c2cccc3cnc(N[C@H]4CC[C@H](O)CC4)nc23)C1` (stereo partly drawn) [Example 196, methyl 3-{2-[(trans-4-hydroxycyclohexyl)amino]quinazolin-8-yl}pyrrolidine-1-carboxylate] has a Ki of 56 nM. In the case of `CCN[C@H]1CC[C@H](Nc2ncc3cccc(OC4CCOCC4)c3n2)CC1` [Example 190, trans-N-ethyl-N′-[8-(tetrahydro-2H-pyran-4-yloxy)quinazolin-2-yl]cyclohexane-1,4-diamine], the Ki is reported as 342 nM. `CS(=O)(=O)CCNC(=O)c1cccc2cnc(N[C@H]3CC[C@H](O)CC3)nc12` [Example 106, 2-[(trans-4-hydroxycyclohexyl)amino]-N-[2-(methylsulfonyl)ethyl]quinazoline-8-carboxamide] showed a Ki of 223 nM. In the case of `CCC[C@@H](CO)NC(=O)c1ccc2cnc(NC(C)C)nc2c1` [Example 406, N-[(1S)-1-(hydroxymethyl)butyl]-2-(isopropylamino)quinazoline-7-carboxamide], the Ki is reported as 730 nM. `CC(=O)N1CC[C@@H](NC(=O)c2ccc3cnc(N[C@H]4CC[C@H](O)CC4)nc3c2)C1` [Example 371, N-[(3R)-1-acetylpyrrolidin-3-yl]-2-[(trans-4-hydroxycyclohexyl)amino]quinazoline-7-carboxamide] gave a Ki of 2490 nM. Compound `CC(=O)N[C@H]1CC[C@H](Nc2ncc3cccc(OC4CCOCC4)c3n2)CC1` [Example 179, N-(trans-4-{[8-(tetrahydro-2H-pyran-4-yloxy)quinazolin-2-yl]amino}cyclohexyl)acetamide] has a Ki of 665 nM. `CC(C)Nc1ncc2ccc(C(=O)N[C@H](CO)Cc3ccccc3)cc2n1` [Example 415, N-((1S)-1-benzyl-2-hydroxyethyl]2-(isopropylamino)quinazoline-7-carboxamide] gave a Ki of 1490 nM. `CCC1(COc2cccc3cnc(N[C@H]4CC[C@H](O)CC4)nc23)COC1` [Example 246, trans-4-({8-[(3-ethyloxetan-3-yl)methoxy]quinazolin-2-yl}amino)cyclohexanol] was tested, and the Ki was 257 nM. Compound `O=C(N[C@H](CO)c1ccccc1)c1ccc2cnc(N[C@H]3CC[C@H](O)CC3)nc2c1` [Example 95, 2-[(trans-4-hydroxycyclohexyl)amino]-N-[(1S)-2-hydroxy-1-phenylethyl]quinazoline-7-carboxamide] has a Ki of 74 nM. `O=C(CCc1cn2cccnc2n1)Nc1cc2cc(-c3cn[nH]c3)ccc2cn1` [Example 18, 3-imidazo[1,2-a]pyrimidin-2-yl-N-[6-(1H-pyrazol-4-yl)isoquinolin-3-yl]propanamide] gave a Ki of 32 nM. Work on `FC1(F)CCC(Nc2ncc3cccc(OC4CCOCC4)c3n2)CC1` [Example 176, N-(4,4-difluorocyclohexyl)-8-(tetrahydro-2H-pyran-4-yloxy)quinazolin-2-amine] yielded a Ki of 422 nM. `O=C(N[C@H]1CC[C@@H](CO)CC1)c1ccc2cnc(N[C@H]3CC[C@H](O)CC3)nc2c1` [Example 336, 2-[(trans-4-hydroxycyclohexyl)amino]-N-[cis-4-(hydroxymethyl)cyclohexyl]quinazoline-7-carboxamide] was tested, and the Ki was 516 nM. `CC(C)(CO)NC(=O)c1ccc2cnc(N[C@H]3CC[C@H](O)CC3)nc2c1` [Example 352, 2-[(trans-4-hydroxycyclohexyl)amino]-N-(2-hydroxy-1,1-dimethylethyl)quinazoline-7-carboxamide] showed a Ki of 1100 nM.

Reference: US7998978B2 (Pfizer Inc., priority 2006, dated 2011)
